One data set relates to white mice. The experiment in a line: Acute Toxicity in white mice after oral administration. The format is in vivo. To be noted: single dose of 300 mg/kg, observation time 14 days. On the procedure:
(§1) The acute toxicity of the test compounds was determined in white mice after oral administration of a single dose of 300 mg/kg (observation time: 14 days).

Experiment in data set [1]: as above
The format is in vivo. To be noted: mouse, in vivo, single dose of 300 mg/kg, observation time 14 days. On the procedure: as §1

On to `COc1ccc(-c2nc3ncncc3[nH]2)c(OC)c1` [A, 8-(2,4-Dimethoxy-phenyl)-purine], for which the animals died in the data set on white mice is recorded as 0 out of 6. Also, the LD50 (commonly the dose expected to kill half of the subjects tested) at 336 h in data set [1] is > 300 mg/kg.

Consider `COc1cc(SC)ccc1-c1nc2ncncc2[nH]1` [B, 8-(2-Methoxy-4-methylmercapto-phenyl)-purine], for which the animals died in the data set on white mice is 2 out of 6. The LD50 at 336 h in data set [1] is > 300 mg/kg.

In the case of `COc1ccc(-c2nc3ncncc3[nH]2)c(OCCSC)c1` [C, 8-[4-Methoxy-2-(2-methylmercapto-ethoxy)-phenyl]purine], the animals died with white mice is 0 out of 6. Moreover, in data set [1], the LD50 at 336 h was > 300 mg/kg.

Turning to `COc1ccc(-c2nc3ncncc3[nH]2)c(OCC[S+](C)[O-])c1` (stereo not drawn) [D, 8-[4-Methoxy-2-(2-methylsulfinyl-ethoxy)-phenyl]purine], in the data set with white mice, the animals died is on record as 0 out of 6. Further, the median lethal dose (LD50) at 336 h in data set [1] is > 300 mg/kg.

On to `COc1cc(Cl)ccc1-c1nc2ncncc2[nH]1` [G, 8-(4-Chloro-2-methoxy-phenyl)-purine], for which, in the data set on white mice, the animals died is reported as 1 out of 6. The LD50 at 336 h in data set [1] is > 300 mg/kg.

As to `COc1cc([S+](C)[O-])ccc1-c1nc2ncncc2[nH]1` (stereo not drawn) [H, 8-(2-Methoxy-4-methylsulfinyl-phenyl)-purine], in the data set with white mice, the animals died is recorded as 3 out of 6. Besides, the 50% lethal dose (LD50) at 336 h in data set [1] was ~300 mg/kg.
